Reference: patent publication US20190183138A1, “MILK COAGULANT AND METHOD FOR PRODUCING CHEESE” (CHINA AGRICULTURAL UNIVERSITY, priority 2017, published 2019)
Square brackets hold non-standard residues; d marks the D form. Peptide text beside a SMILES is read from it. * marks the point of attachment. Sta = CC(C)C[C@H](N)[C@@H](O)CC(=O)O; Isovaleryl = CC(C)CC(=O)*

How the values were obtained:
[1] = system: C. otophyllum protease QA; assay: Effect of metal ions on milk-clotting activity; assay type: biochemical, Cynanchum otophyllum Schneid.; settings: metal ion 10 mmol/L added to 12% (w/v) skim milk containing 10 mmol/L CaCl2, pH 6.5
Excerpt: (§1) Some metal ions as a cofactor can participate in the milk-clotting reaction, thus affecting activity of enzyme. Further, the skim milk is of increased iron strength after addition of salts, thus interfering the stability of casein micelle and the formation of the milk clot. […] The reason of the promotion on milk coagulant activity and the decrease in milk-clotting time by the calcium ions is that they combines with exposed α-casein and β-casein during aggregation of the casein (i.e. the second step of the milk-clotting reaction), so as to promote formation of the milk clot. Further, it has been investigated that the calcium ions protect enzyme, especially those being poor resistant to temperature, and stabilizes the structure of enzyme, thus an amount of CaCl2 is often added to protect the structure of enzyme during cheese production, for increasing activity and speeding milk-clotting.

[2] = system: C. otophyllum protease QC; assay: Effect of metal ions on milk-clotting activity; assay type: biochemical, Cynanchum otophyllum Schneid.; settings: metal ion 10 mmol/L added to 12% (w/v) skim milk containing 10 mmol/L CaCl2, pH 6.5
Excerpt: as §1

[3] = system: C. otophyllum protease QA; assay type: biochemical, Cynanchum otophyllum Schneid.; settings: inhibitor 8 mmol/L, 37° C., 30 min
Procedure: (§2) The caseinolytic activities of the C. otophyllum proteases were determined using a method modified from Mohanty et al. (2003). The substrate was prepared by dissolving 1% (wt/vol) of whole casein in 10 mmol/L of citric acidphosphate buffer (pH 6.5). The assay was performed by incubating 1.1 mL of substrate with 0.1 mL of partially purified protease extracted solution under 37° C. for 30 min and terminated using 1.8 mL of 5% (wt/vol) trichloroacetic acid (TCA). The blank control was prepared by adding the same amount of TCA to the protease extracted solution, then adding the substrate. After 30 min standing at room temperature, the completely precipitated proteins were removed by centrifuging at 5,000 × g for 20 min at room temperature. The protein content in the supernatant was then measured at 280 nm (UV-2102 PC, Unico Instrument Co. Ltd.). One unit of PA was defined as the amount of the protease extracted solution required for an increase of 0.01 in optical density in 1 min at 280 nm.
(§3) The type of protease was determined as described by Mazorra-Manzano et al. (2013) with modification.Different protease inhibitors (8 mmol/L, 0.1 mL), a serine protease (phenylmethylsulfonyl fluoride, PMSF), a cysteine protease [transepoxy-succinylleucyl-amido-(4-guanidino)-butane, E-64], a metallo protease (EDTA), and an aspartic protease (pepstatin A), were added to 1 mL of the proteases. The mixtures were incubated at 37° C. for 30 min, then PA was evaluated. The percentage inhibition was calculated as follows:
(§4) percentage inhibition=100−[100−(residual activity/activity without inhibitor)].

[4] = system: C. otophyllum protease QC; assay type: biochemical, Cynanchum otophyllum Schneid.; settings: inhibitor 8 mmol/L, 37° C., 30 min
Procedure: as §2, §3, §4

12% skim milk = assay: Milk clotting activity (MCA) assay, curd formation time; assay type: biochemical; settings: 12% skim milk in 10 mM CaCl2, pH 6.5, 37° C.; FIG. 5
Procedure: The MCA of the C. otophyllum proteases was determined using a modified method of He et al. (2011). One milliliter of substrate (12% skim milk in 10 mM CaCl2, pH 6.5) was incubated under 37° C. for 5 min, then 0.1 mL of the protease extracted solution was added. The time needed for curd formation was recorded and the MCA was expressed in Soxhlet units (SU). One SU of MCA was defined as the amount of the protease extracted solution required to clot 1 mL of substrate within 40 min at 37° C.
where V stands for the volume of the substrate (mL); v stands for the volume of the protease extract; and t stands for the milk-clotting time (s).
The C. otophyllum proteases were extracted as described by Huang et al. (2011) with some modifications. The C. otophyllum leaves were cut into pieces, mixed with a buffer at different solid-liquid ratios (i.e. ratio of mass to volume) for extraction, and then left for 2 h under 4° C., thus obtaining an extracted solution. After successive filtration through 4 layers of cheesecloth and a 0.22-μm membrane, the filtrate was concentrated by ultrafiltration with a 10-kDa molecular weight cut-off membrane at 8000 × g for 40 minutes at 4° C., with the retentate obtained as the concentrated solution of C. otophyllum proteases, which was assayed for protein concentration following the method of Bradford (1976) and curd formation time for 12% (w/v) skim milk.

barium
effect on milk-clotting activity of QA [1]: no significant effect
effect on milk-clotting activity of QC [2]: no significant effect

magnesium
effect on milk-clotting activity of QA [1]: no significant effect
effect on milk-clotting activity of QC [2]: no significant effect

aluminium
effect on milk-clotting activity of QA [1]: significant increased effect
effect on milk-clotting activity of QC [2]: significant increased effect

copper
effect on milk-clotting activity of QA [1]: significant inhibition
effect on milk-clotting activity of QC [2]: significant inhibition

O=C(O)CN(CCN(CC(=O)O)CC(=O)O)CC(=O)O [EDTA]
effect on the PA of QA [3]: does not affect
effect on the PA of QC [4]: does not affect

CC(C)C[C@H](NC(=O)[C@H]1O[C@@H]1C(=O)O)C(=O)NCCCCN=C(N)N [E-64, transepoxy-succinylleucyl-amido-(4-guanidino)-butane]
PA of QA in presence of inhibitor ([3]; 0.1 mL to 1 mL protease): 20 % of the control
PA of QC in presence of inhibitor ([4]; 0.1 mL to 1 mL protease): 20 % of the control

lithium
effect on milk-clotting activity of QA [1]: no significant effect
effect on milk-clotting activity of QC [2]: no significant effect

O=S(=O)(F)Cc1ccccc1 [PMSF, phenylmethylsulfonyl fluoride]
reduction in the activity of QA ([3]; compared to the control): about 15%
reduction in the activity of QC ([4]; compared to the control): about 15%

potassium
effect on milk-clotting activity of QA [1]: no significant effect
effect on milk-clotting activity of QC [2]: no significant effect

zinc
effect on milk-clotting activity of QA [1]: significant inhibition
effect on milk-clotting activity of QC [2]: significant inhibition

sodium
effect on milk-clotting activity of QA [1]: no significant effect
effect on milk-clotting activity of QC [2]: no significant effect

bromelain [reference compound]
MCA (milk-clotting activity) (12% skim milk): 222.2 SU/mg

CC(C)CC(=O)N[C@H](C(=O)N[C@H](C(=O)N[C@@H](CC(C)C)[C@@H](O)CC(=O)N[C@@H](C)C(=O)N[C@@H](CC(C)C)[C@@H](O)CC(=O)O)C(C)C)C(C)C [pepstatin A] (Isovaleryl-VV[Sta]A[Sta]-OH)
effect on the PA of QA [3]: does not affect
effect on the PA of QC [4]: does not affect

calcium
effect on milk-clotting activity of QA [1]: significant increased effect
effect on milk-clotting activity of QC [2]: significant increased effect
